In one test the target is T1, mTOR kinase (Homo sapiens, UniProt P42345).
T1 construct: purchased Millipore, USA
Put plainly: mTOR kinase TR-FRET assay. In kind it is biochemical. The following applies: 20 μM ATP. The protocol: Compound inhibition for mTOR kinase was determined in a homogeneous TR-FRET assay using the Lance® ULight-p70 S6K (Thr 389) peptide (obtained from Perkin-Elmer). The ULight™-labeled synthetic peptide contains the amino acid residues surrounding Thr389 of human p70 S6K. The ULight-p70 S6K peptide is phosphorylated at Thr389 by mTOR. Phosphorylation motif: LGFTYVAP as substrate.
The compound dilution was carried out in 100% DMSO followed by a buffer dilution. The reaction buffer was HEPES (50 mM pH 7.5), EGTA (1 mM), MnCl2 (3 mM). Test compounds at various concentrations were pre-incubated with mTOR (Millipore, USA; 5 ng) for 60 min, and then the Lance® ULight-p70 S6K (Thr 389) peptide (50 nM) was added along with ATP (20 μM). After incubating the reaction mixture for 60 minutes at room temperature, the kinase reaction was terminated by the addition of EDTA (10 mM) followed by the addition of detection mix, i.e., 1 nM Eu-labeled anti-phospho-substrate antibody (Perkin Elmer, USA). The fluorescence emission at […] was measured upon excitation at 340 nm. IC50 values were subsequently determined using a sigmoidal dose-response curve (variable slope) in GraphPad Prism® 5 software.
Compounds of formula (I) caused inhibition of mTOR kinase activity as determined by this assay.
A general note: Time-resolved FRET reads energy transfer from a long-lived donor to a nearby acceptor.

For the next test, the system named is PC3 cells. Put plainly: XTT assay for cell viability, PC3 cells. Conditions: Homo sapiens, PC-3; PC3 cell proliferation, 96 hours. In kind it is cell-based. On the procedure: Using a commercial kit from Sigma Aldrich (Catalog #X34251) and following its protocol, PC3 cells in the log phase of growth were employed and seeded at an optimal density of 1000 cell/well on to 96 well plates and incubated for 24 hours followed by the addition of compounds of formula (I) in serial dilutions. Compound dilutions were made in DMSO. The cells were incubated with the compounds of formula (I) for 96 hours and XTT tetrazolium dye (Sigma, USA) was subsequently added and incubated at 37° C. After the color formation, absorbance was measured at 465 nm in a Spectramax® Gemini spectrophotometer. EC50 values were calculated using a sigmoidal dose response curve fit in GraphPad Prism® v5 software. The tested compounds of formula (I) which caused inhibition of PC3 cell proliferation as determined by this assay protocol are shown in Table 2.

A further test has as its target T2, PI3Kα (wild-type) (Homo sapiens, UniProt P42336).
T2 construct: made in house; host or cells: SF9 insect cells
Put plainly: PI3 Kinase TR-FRET assay, PI3Kα (wild-type). It counts as biochemical. Conditions: wild-type P110/P85α, 10 μM ATP. On the procedure: The ability of compounds of the invention to inhibit PI3K activity was determined in a homogeneous TR-FRET assay using a PI3K assay kit (Millipore, USA; cat #33-016) according to manufacturer's instructions. PI3-Kinases (isoforms α, β, γ and δ) catalyze the phosphorylation of phosphatidylinositol, PIP2 to PIP3 in the presence of ATP and Mg^2+. The PIP3 product is detected by displacement of biotin-PIP3 from an energy transfer complex consisting of Europium labeled anti-GST monoclonal antibody, a GST-tagged PH domain, biotinylated PIP3 and Streptavidin-APC. Excitation of Europium in the complex results in an energy transfer to the APC and a fluorescence emission at 665 nm. The PIP3 product displaces biotin-PIP3 from the complex resulting in a loss of energy transfer and thus a decrease in signal.
To test for the ability of compounds to inhibit the activity of PI3Kα (wild-type), exemplary compounds of formula (I) were dissolved in DMSO and directly distributed into 384-well plates at a volume of 0.5 μL. 14.5 μL of P110/P85α/PIP2 mixture in buffer (obtained from the Millipore kit) containing MgCl2 (40 mM) and DTT (5 mM) was added to compound wells and incubated for 60 minutes at room temperature. P110/P85α was expressed in SF9 insect cells and purified nickel column extraction. Five ng of wild-type P110/P85α was used in the assay. The kinase reaction was started by the addition of ATP. The assay concentrations of both PIP2 and ATP were 10 μM. The reaction mixture was incubated for 30 minutes at room temperature and was terminated by the addition of stop mix and detection mix. Fluorescence was measured at 615 and 665 nm upon excitation at 340 nm in a Victor™ V5 fluorometer (Perkin Elmer, USA). The fluorescence emission ratio at 665 to 615 nm, proportional to the kinase activity, was plotted against the compound concentration to generate dose-response curves and IC50 values were determined using GraphPad Prism® 5 software.

SMILES strings stand for the structures. Bounds are passed on as bounds.

T1 sequence (P42345 1362-2549 limits assumed): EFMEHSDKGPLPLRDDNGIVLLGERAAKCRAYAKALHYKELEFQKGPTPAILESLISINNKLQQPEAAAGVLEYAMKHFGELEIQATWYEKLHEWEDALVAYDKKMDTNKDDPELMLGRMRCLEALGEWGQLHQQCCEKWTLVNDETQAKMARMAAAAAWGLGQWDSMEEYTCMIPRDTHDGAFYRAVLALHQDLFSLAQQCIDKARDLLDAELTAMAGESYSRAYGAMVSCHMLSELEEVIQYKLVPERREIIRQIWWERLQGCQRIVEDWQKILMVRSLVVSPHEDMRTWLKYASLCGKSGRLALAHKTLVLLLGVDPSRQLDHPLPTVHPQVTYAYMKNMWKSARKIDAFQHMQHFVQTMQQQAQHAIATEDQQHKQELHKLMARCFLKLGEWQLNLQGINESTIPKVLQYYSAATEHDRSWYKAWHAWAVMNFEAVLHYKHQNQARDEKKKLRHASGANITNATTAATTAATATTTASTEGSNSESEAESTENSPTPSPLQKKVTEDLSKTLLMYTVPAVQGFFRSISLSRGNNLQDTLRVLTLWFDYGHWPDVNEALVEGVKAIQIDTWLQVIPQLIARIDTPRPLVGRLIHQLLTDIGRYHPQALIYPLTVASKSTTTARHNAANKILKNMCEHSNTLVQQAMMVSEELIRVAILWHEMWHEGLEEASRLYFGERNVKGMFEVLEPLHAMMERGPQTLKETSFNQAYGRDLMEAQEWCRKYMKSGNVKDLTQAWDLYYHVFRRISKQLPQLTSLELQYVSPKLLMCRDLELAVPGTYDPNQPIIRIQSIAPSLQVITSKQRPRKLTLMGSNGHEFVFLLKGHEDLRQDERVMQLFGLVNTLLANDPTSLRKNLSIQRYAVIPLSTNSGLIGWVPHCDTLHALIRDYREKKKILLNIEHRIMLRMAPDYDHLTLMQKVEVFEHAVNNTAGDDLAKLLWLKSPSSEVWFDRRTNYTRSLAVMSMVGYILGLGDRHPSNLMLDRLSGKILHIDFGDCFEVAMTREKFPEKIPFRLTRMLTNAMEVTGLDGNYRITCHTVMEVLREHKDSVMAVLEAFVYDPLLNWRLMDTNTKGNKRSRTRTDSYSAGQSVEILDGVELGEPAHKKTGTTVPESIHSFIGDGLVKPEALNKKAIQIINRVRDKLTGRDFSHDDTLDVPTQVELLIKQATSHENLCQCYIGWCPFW
T2 sequence (P42336 whole entry, species assumed): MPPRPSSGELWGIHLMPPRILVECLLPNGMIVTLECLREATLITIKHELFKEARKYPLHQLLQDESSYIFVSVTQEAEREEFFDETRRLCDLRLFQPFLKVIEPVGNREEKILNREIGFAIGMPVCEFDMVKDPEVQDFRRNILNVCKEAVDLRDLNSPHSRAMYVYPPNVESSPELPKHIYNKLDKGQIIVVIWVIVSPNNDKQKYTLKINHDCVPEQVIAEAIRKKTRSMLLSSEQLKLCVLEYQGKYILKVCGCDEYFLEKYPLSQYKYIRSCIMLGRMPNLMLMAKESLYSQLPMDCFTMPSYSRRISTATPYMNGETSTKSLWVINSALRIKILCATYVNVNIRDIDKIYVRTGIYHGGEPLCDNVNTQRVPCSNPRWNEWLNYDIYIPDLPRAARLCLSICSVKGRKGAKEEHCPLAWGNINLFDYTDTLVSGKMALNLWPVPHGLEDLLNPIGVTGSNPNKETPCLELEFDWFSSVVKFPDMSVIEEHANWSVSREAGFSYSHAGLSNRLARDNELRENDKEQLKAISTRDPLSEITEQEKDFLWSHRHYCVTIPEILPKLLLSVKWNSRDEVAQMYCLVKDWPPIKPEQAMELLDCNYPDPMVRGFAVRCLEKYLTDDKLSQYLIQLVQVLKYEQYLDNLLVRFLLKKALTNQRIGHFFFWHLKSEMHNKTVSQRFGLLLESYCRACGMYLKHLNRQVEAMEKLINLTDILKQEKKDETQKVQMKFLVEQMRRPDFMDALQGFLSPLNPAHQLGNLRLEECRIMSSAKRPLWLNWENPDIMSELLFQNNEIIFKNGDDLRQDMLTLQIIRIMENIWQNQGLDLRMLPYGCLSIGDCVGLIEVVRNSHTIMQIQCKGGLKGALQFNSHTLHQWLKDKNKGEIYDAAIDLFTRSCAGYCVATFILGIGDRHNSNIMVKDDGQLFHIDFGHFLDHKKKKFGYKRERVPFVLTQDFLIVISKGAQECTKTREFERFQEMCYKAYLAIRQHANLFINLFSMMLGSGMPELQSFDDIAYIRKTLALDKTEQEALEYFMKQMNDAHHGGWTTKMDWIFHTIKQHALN
T2 sequence (P27986 whole entry partner, species assumed): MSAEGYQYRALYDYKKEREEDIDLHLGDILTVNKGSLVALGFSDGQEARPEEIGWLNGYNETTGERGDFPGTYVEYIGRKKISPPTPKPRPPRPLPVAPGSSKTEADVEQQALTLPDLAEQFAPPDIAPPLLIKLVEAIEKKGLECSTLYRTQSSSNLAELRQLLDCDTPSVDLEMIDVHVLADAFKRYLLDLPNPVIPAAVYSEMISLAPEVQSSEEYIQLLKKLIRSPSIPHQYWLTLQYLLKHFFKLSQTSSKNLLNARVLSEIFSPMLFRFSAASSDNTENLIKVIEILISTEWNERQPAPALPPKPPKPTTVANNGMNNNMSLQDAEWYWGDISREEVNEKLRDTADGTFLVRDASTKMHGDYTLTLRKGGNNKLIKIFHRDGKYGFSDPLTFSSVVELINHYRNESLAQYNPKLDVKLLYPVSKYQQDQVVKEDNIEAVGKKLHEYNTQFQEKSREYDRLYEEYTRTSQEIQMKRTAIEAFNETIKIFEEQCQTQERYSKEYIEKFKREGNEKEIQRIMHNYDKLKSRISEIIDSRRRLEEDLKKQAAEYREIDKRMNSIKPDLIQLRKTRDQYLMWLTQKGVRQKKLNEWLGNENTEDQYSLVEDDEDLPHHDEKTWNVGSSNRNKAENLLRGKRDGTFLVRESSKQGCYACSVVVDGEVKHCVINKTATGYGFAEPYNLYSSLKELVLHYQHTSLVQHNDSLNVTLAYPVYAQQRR

As to `CC(=O)Nc1ccc(F)c(-c2cnc3c(N4CCOCC4)nc(-c4cnc(N)nc4)nc3c2)c1F` [Example 123, N-(3-(2-(2-amino-pyrimidin-5-yl)-4-morpholinopyrido[3,2-d]pyrimidin-7-yl)-2,4-difluorophenyl)acetamide], the IC50 (in general, the midpoint of a concentration-inhibition curve) was 50 to 200 nM at mTOR kinase, 100 to 500 nM in the test with PC3 cells and under 50 nM on PI3Kα (wild-type).
For `CC(=O)Nc1cccc(-c2ccc3c(N4CCOCC4)nc(-c4cnc(N)nc4)nc3c2)c1` [Example 13, N-(3-(2-(2-amino-pyrimidin-5-yl)-4-morpholinoquinazolin-7-yl)phenyl)acetamide], in that order: 50 to 200 nM, 501 to 5000 nM and 201 to 10000 nM.
Regarding `CC(=O)N1CCN(C(=O)c2cccc(-c3cnc4c(N5CCOCC5)nc(-c5cnc(N)nc5)nc4c3)c2)CC1` [Example 35, 1-(4-(3-(2-(2-amino-pyrimidin-5-yl)-4-morpholinopyrido[3,2-d]-pyrimidin-7-yl)benzoyl)-piperazin-1-yl)ethanone], the values for the IC50 against mTOR kinase, with PC3 cells and at PI3Kα (wild-type) were 50 to 200 nM, 501 to 5000 nM and under 50 nM, respectively.
For `Nc1ncc(-c2nc(N3CCOCC3)c3ncc(-c4ccc5c(c4)NC(=O)CO5)cc3n2)cn1` [Example 111, 6-(2-(2-aminopyrimidin-5-yl)-4-morpholinopyrido[3,2-d]pyrimidin-7-yl)-2H-benzo[b][1,4]oxazin-3(4H)-one], in that order: 50 to 200 nM, 100 to 500 nM and under 50 nM.
Turning to `CNC(=O)Nc1cccc(-c2ccc3c(N4CCOCC4)nc(-c4cnc(N)nc4)nc3c2)c1` [Example 15, 1-(3-(2-(2-amino-pyrimidin-5-yl)-4-morpholinoquinazolin-7-yl)phenyl)-3-methylurea], the values for the IC50 against mTOR kinase, in the test on PC3 cells and at PI3Kα (wild-type) were under 50 nM, 501 to 5000 nM and 201 to 10000 nM, respectively.
With `CN1CCN(C(=O)c2cccc(-c3cnc4c(N5CCOCC5)nc(-c5cnc(N)nc5)nc4c3)c2)CC1` [Example 110, (3-(2-(2-aminopyrimidin-5-yl)-4-morpholinopyrido[3,2-d]-pyrimidin-7-yl)phenyl)(4-methylpiperazin-1-yl)-methanone], the results for the IC50 against mTOR kinase and in the test on PC3 cells were 50 to 200 nM and 100 to 500 nM, respectively.
As to `Nc1ncc(-c2nc(N3CCOCC3)c3ncc(-c4cccc(NC(=O)C5CC5)c4F)cc3n2)cn1` [Example 115, N-(3-(2-(2-amino-pyrimidin-5-yl)-4-morpholinopyrido[3,2-d]pyrimidin-7-yl)-2-fluorophenyl)-cyclopropane-carboxamide], the IC50 against mTOR kinase was under 50 nM; in the test on PC3 cells, 100 to 500 nM; at PI3Kα (wild-type), under 50 nM.
Consider `CC(=O)Nc1cc(-c2cnc3c(N4CCOCC4)nc(-c4cnc(N)nc4)nc3c2)ccc1N1CCN(C)CC1` [Example 114, N-(5-(2-(2-amino-pyrimidin-5-yl)-4-morpholinopyrido[3,2-d]pyrimidin-7-yl)-2-(4-methylpiperazin-1-yl)-phenyl)acetamide], for which the IC50 against mTOR kinase was under 50 nM; in the test with PC3 cells it was 100 to 500 nM; against PI3Kα (wild-type) it was under 50 nM.
`Nc1ncc(-c2nc(N3CCOCC3)c3ncc(-c4ccc(C(=O)N5CCC(O)CC5)cc4)cc3n2)cn1` [Example 39, (4-(2-(2-aminopyrimidin-5-yl)-4-morpholino-pyrido[3,2-d]pyrimidin-7-yl)phenyl)(4-hydroxy-piperidin-1-yl)methanone]: the IC50 in the test with PC3 cells was in the range of 501 to 5000 nM.
For the compound `Cn1cc(-c2ccc3c(N4CCOCC4)nc(-c4cnc(N)nc4)nc3c2)cn1` [Example 14, 5-(7-(1-methyl-1H-pyrazol-4-yl)-4-morpholinoquinazolin-2-yl)pyrimidin-2-amine], the IC50 against mTOR kinase is 201 to 10000 nM; in the test with PC3 cells, 501 to 5000 nM; at PI3Kα (wild-type), 201 to 10000 nM.
As to `CN1CCN(c2cncc(-c3cnc4c(N5CCOCC5)nc(-c5cnc(N)nc5)nc4c3)c2)CC1` [Example 100, 5-(7-(5-(4-methyl-piperazin-1-yl)pyridin-3-yl)-4-morpholino-pyrido[3,2-d]pyrimidin-2-yl)pyrimidin-2-amine], the results for the IC50 against mTOR kinase, in the test on PC3 cells and against PI3Kα (wild-type) were 50 to 200 nM, 501 to 5000 nM and under 50 nM, respectively.
On to `Nc1ncc(-c2nc(N3CCOCC3)c3ncc(-c4ccco4)cc3n2)cn1` [Example 25, 5-(7-(furan-2-yl)-4-morpholinopyrido[3,2-d]-pyrimidin-2-yl)pyrimidin-2-amine], for which the IC50 at mTOR kinase is under 50 nM; in the test on PC3 cells, 100 to 500 nM; at PI3Kα (wild-type), under 50 nM.
Regarding `CC(F)C(=O)Nc1cccc(-c2cnc3c(N4CCOCC4)nc(-c4cnc(N)nc4)nc3c2)c1` (centres unmarked) [Example 51, N-(3-(2-(2-amino-pyrimidin-5-yl)-4-morpholinopyrido[3,2-d]pyrimidin-7-yl)phenyl)-2-fluoropropanamide], the figures for the IC50 against mTOR kinase, with PC3 cells and at PI3Kα (wild-type) were under 50 nM, 100 to 500 nM and under 50 nM, respectively.
Consider `CS(=O)(=O)Nc1cccc(-c2ccc3c(N4CCOCC4)nc(-c4cnc(N)nc4)nc3c2)c1` [Example 16, N-(3-(2-(2-amino-pyrimidin-5-yl)-4-morpholinoquinazolin-7-yl)phenyl)methane-sulfonamide], for which the figures for the half-maximal inhibitory concentration (IC50) against mTOR kinase, in the test on PC3 cells and against PI3Kα (wild-type) were under 50 nM, 501 to 5000 nM and 50 to 200 nM, respectively.
Take `CN1CCN(CC(=O)Nc2cccc(-c3cnc4c(N5CCOCC5)nc(-c5cnc(N)nc5)nc4c3)c2)CC1` [Example 83, N-(3-(2-(2-aminopyrimidin-5-yl)-4-morpholinopyrido[3,2-d]pyrimidin-7-yl)phenyl)-2-(4-methylpiperazin-1-yl)acetamide]: the IC50 is 50 to 200 nM against mTOR kinase, 100 to 500 nM in the test on PC3 cells and under 50 nM at PI3Kα (wild-type).
For `Nc1ncc(-c2nc(N3CCOCC3)c3ncc(-c4cccc(NC(=O)c5cncc(F)c5)c4)cc3n2)cn1` [Example 99, N-(3-(2-(2-amino-pyrimidin-5-yl)-4-morpholinopyrido[3,2-d]-pyrimidin-7-yl)phenyl)-5-fluoronicotinamide], in that order: under 50 nM, 100 to 500 nM and under 50 nM.
`Cc1cc(C(=O)Nc2ccc(-c3cnc4c(N5CCOCC5)nc(-c5cnc(N)nc5)nc4c3)cc2)[nH]n1` [Example 80, N-(4-(2-(2-amino-pyrimidin-5-yl)-4-morpholinopyrido[3,2-d]pyrimidin-7-yl)phenyl)-3-methyl-1H-pyrazole-5-carboxamide] had an IC50 with PC3 cells of over 1000 nM.
Regarding `CC(C)(O)C(=O)N1CCN(c2cccc(-c3cnc4c(N5CCOCC5)nc(-c5cnc(N)nc5)nc4c3)c2)CC1` [Example 108, 1-(4-(3-(2-(2-amino-pyrimidin-5-yl)-4-morpholinopyrido[3,2-d]pyrimidin-7-yl)-phenyl)piperazin-1-yl)-2-hydroxy-2-methylpropan-1-one], the IC50 is under 50 nM against mTOR kinase, 100 to 500 nM in the test with PC3 cells and under 50 nM against PI3Kα (wild-type).
Regarding `Nc1ncc(-c2nc(N3CCOCC3)c3ncc(-c4cccc(C(=O)N5CCC(O)CC5)c4)cc3n2)cn1` [Example 40, (3-(2-(2-aminopyrimidin-5-yl)-4-morpholino-pyrido[3,2-d]pyrimidin-7-yl)phenyl)(4-hydroxy-piperidin-1-yl)methanone], the IC50 in the test with PC3 cells was in the range of 100 to 500 nM.
